Measured values from ChEMBL document CHEMBL6074659, “Development of an Intravenously Stable Disulfide-Rich Peptide for the Treatment of Chemotherapy-Induced Neuropathic Pain” (J Med Chem, 2024).
The source made the active and inactive calls. The calls are words filed in the database; no cut-off is given here. Starred links: 1 amine or outer side, 2 acyl side, 3 side chain; linkers in the order of their positions; H or OH if unused. Positions of bridges follow the written chain, without caps; N, C: chain ends. Non-standard residues stand in square brackets, D forms with d. Residues, ends and D or L forms follow the SMILES beside them. Dap = NC[C@H](N)C(=O)O; CH2 = C([*:1])[*:2]

How the values were obtained:
[1] = molecular target: T1, Neuronal acetylcholine receptor; alpha9/alpha10 (Homo sapiens) (UniProt Q9UGM1+Q9GZZ6); assay: Antagonist activity at human alpha9alpha10 nAChR expressed in acetylcholine-induced Xenopus laevis oocytes assessed as inhibition of acetylcholine-induced current at 10 nM at -80 mV holding potential incubated for 5 mins by two electrode voltage-clamp assay; format: cell-based; settings: Oocyte, filed as antagonist
[2] = molecular target: T1, Neuronal acetylcholine receptor; alpha9/alpha10 (Homo sapiens); assay: Antagonist activity at human alpha9alpha10 nAChR expressed in acetylcholine-induced Xenopus laevis oocytes assessed as inhibition of acetylcholine-induced current at 10 nM at -80 mV holding potential incubated for 5 mins by two electrode voltage-clamp assay relative to control; format: cell-based; settings: Oocyte
[3] = Stability in human serum assessed as parent compound remaining incubated at 24 hrs by RP-HPLC analysis; format: ADME, cell-free; settings: for remaining at 24 h: human serum, read-out: Stability
[4] = molecular target: Neuronal acetylcholine receptor; alpha9/alpha10 (Homo sapiens, UniProt Q9GZZ6+Q9UGM1); assay: Antagonist activity at human alpha9alpha10 nAChR expressed in acetylcholine-induced Xenopus laevis oocytes assessed as inhibition of acetylcholine-induced current at -80 mV holding potential incubated for 5 mins by two electrode voltage-clamp assay; format: cell-based, Oocyte
Sequence of Neuronal acetylcholine receptor; alpha9/alpha10 (Q9UGM1 whole entry): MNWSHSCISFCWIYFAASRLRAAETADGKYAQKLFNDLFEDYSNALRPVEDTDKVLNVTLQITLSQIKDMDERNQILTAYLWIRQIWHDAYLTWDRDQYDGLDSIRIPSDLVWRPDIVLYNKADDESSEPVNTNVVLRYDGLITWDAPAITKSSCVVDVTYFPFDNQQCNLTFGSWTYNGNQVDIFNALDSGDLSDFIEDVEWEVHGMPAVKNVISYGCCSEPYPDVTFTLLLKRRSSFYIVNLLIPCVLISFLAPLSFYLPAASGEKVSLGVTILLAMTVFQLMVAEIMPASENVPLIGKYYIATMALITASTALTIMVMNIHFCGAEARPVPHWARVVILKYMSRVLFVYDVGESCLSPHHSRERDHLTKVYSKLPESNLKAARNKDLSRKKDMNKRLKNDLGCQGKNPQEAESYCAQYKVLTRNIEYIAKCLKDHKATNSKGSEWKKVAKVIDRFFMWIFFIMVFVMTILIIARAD
Sequence of Neuronal acetylcholine receptor; alpha9/alpha10 (Q9GZZ6 whole entry): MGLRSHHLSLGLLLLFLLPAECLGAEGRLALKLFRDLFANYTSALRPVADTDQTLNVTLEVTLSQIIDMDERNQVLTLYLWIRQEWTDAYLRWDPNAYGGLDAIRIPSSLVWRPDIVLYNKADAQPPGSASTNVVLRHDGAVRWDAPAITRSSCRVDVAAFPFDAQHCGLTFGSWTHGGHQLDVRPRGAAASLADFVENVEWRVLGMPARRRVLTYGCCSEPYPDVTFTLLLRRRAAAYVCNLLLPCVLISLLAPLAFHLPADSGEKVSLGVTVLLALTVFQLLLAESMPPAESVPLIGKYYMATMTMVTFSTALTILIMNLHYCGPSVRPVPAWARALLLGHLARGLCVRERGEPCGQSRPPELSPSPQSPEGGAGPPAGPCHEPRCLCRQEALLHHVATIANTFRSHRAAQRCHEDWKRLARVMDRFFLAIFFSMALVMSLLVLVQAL

[5] = Stability in human serum assessed as parent compound remaining incubated measured upto 48 hrs by RP-HPLC analysis; format: ADME, cell-free
[6] = Antagonist activity at rat alpha9alpha10 nAChR expressed in acetylcholine-induced Xenopus laevis oocytes assessed as inhibition of acetylcholine-induced current at -80 mV holding potential incubated for 5 mins by two electrode voltage-clamp assay; format: cell-based; settings: Oocyte
[7] = Stability in human serum assessed as parent compound remaining incubated at 48 hrs by RP-HPLC analysis; format: ADME, cell-free; settings: read-out: Stability

SMILES	Activity [1]	inhibition [2]	remaining at 24 h [3]	other results
CC[C@H](C)[C@@H]1NC(=O)[C@H](CC(=O)O)NC(=O)[C@@H]2CCCN2C(=O)[C@H](CC(N)=O)NC(=O)[C@H](CC(N)=O)NC(=O)[C@H](C(C)C)NC(=O)[C@H](CO)NC(=O)[C@@H]2CSCSC[C@H](NC(=O)CN)C(=O)N[C@@H](CSCSC[C@@H](C(N)=O)NC1=O)C(=O)N[C@@H](CN)C(=O)N[C@@H](Cc1cnc[nH]1)C(=O)N1CCC[C@H]1C(=O)N[C@@H](C)C(=O)N2 (H-GCC[Dap]HPACSVNNPDIC-NH2; linker 2-8, 3-16 via CH2)	Active			
CC[C@H](C)[C@@H]1NC(=O)[C@H](CC(=O)O)NC(=O)[C@@H]2CCCN2C(=O)[C@H](CC(N)=O)NC(=O)[C@H](CC(N)=O)NC(=O)[C@H](C(C)C)NC(=O)[C@H](CO)NC(=O)[C@@H]2CSSC[C@@H]3NC(=O)CNC(=O)[C@H](CCC(=O)O)NC(=O)CNC(=O)[C@H](CCC(=O)O)NC(=O)CNC(=O)[C@H](CCC(=O)O)NC(=O)CNC(=O)[C@H](CSSC[C@H](NC3=O)C(=O)N[C@@H](CN)C(=O)N[C@@H](Cc3cnc[nH]3)C(=O)N3CCC[C@H]3C(=O)N[C@@H](C)C(=O)N2)NC1=O (HELM PEPTIDE1{A.C.S.V.N.N.P.D.I.C.G.E.G.E.G.E.G.C.C.[NC[C@H](N[*:1])C(=O)[*:2]].H.P}$PEPTIDE1,PEPTIDE1,2:R3-18:R3|PEPTIDE1,PEPTIDE1,10:R3-19:R3|PEPTIDE1,PEPTIDE1,1:R1-22:R2$$$V2.0)		20%	57.3%	
CC[C@H](C)[C@@H]1NC(=O)[C@H](CC(=O)O)NC(=O)[C@@H]2CCCN2C(=O)[C@H](CC(N)=O)NC(=O)[C@H](CC(N)=O)NC(=O)[C@H](C(C)C)NC(=O)[C@H](CO)NC(=O)[C@@H]2CSSC[C@@H]3NC(=O)CNC(=O)[C@@H](N)CC(=O)NCC[C@@H](C(N)=O)NC(=O)[C@H](CSSC[C@H](NC3=O)C(=O)N[C@@H](CN)C(=O)N[C@@H](Cc3cnc[nH]3)C(=O)N3CCC[C@H]3C(=O)N[C@@H](C)C(=O)N2)NC1=O (HELM PEPTIDE1{D.G.C.C.[NC[C@H](N[*:1])C(=O)[*:2]].H.P.A.C.S.V.N.N.P.D.I.C.[Dab].[am]}$PEPTIDE1,PEPTIDE1,1:R3-18:R3|PEPTIDE1,PEPTIDE1,3:R3-9:R3|PEPTIDE1,PEPTIDE1,4:R3-17:R3$$$V2.0)			64.6%	inhibition ([2]; filed as antagonist): 90%; IC50 [4]: 3.3 nM; Stability [5]: Stable
CC[C@H](C)[C@@H]1NC(=O)[C@H](CC(=O)O)NC(=O)[C@@H]2CCCN2C(=O)[C@H](CC(N)=O)NC(=O)[C@H](CC(N)=O)NC(=O)[C@H](C(C)C)NC(=O)[C@H](CO)NC(=O)[C@@H]2CSSC[C@@H]3NC(=O)CNC(=O)[C@@H](N)CC(=O)NC[C@@H](C(N)=O)NC(=O)[C@H](CSSC[C@H](NC3=O)C(=O)N[C@@H](CN)C(=O)N[C@@H](Cc3cnc[nH]3)C(=O)N3CCC[C@H]3C(=O)N[C@@H](C)C(=O)N2)NC1=O (HELM PEPTIDE1{D.G.C.C.[NC[C@H](N[*:1])C(=O)[*:2]].H.P.A.C.S.V.N.N.P.D.I.C.[O=C([C@H](CN[*:3])N[*:1])[*:2]].[am]}$PEPTIDE1,PEPTIDE1,1:R3-18:R3|PEPTIDE1,PEPTIDE1,3:R3-9:R3|PEPTIDE1,PEPTIDE1,4:R3-17:R3$$$V2.0)			57.3%	inhibition ([2]; filed as antagonist): 90%; IC50 [4]: 3.2 nM; Stability ([3]; serum, 24 h): 72.4%; Stability [5]: Stable
CC[C@H](C)[C@@H]1NC(=O)[C@H](CC(=O)O)NC(=O)[C@@H]2CCCN2C(=O)[C@H](CC(N)=O)NC(=O)[C@H](CC(N)=O)NC(=O)[C@H](C(C)C)NC(=O)[C@H](CO)NC(=O)[C@@H]2CSCSC[C@H](NC(=O)CN)C(=O)N[C@@H](CSSC[C@@H](C(N)=O)NC1=O)C(=O)N[C@@H](CN)C(=O)N[C@@H](Cc1cnc[nH]1)C(=O)N1CCC[C@H]1C(=O)N[C@@H](C)C(=O)N2 (HELM PEPTIDE1{G.C.C.[NC[C@H](N[*:1])C(=O)[*:2]].H.P.A.C.S.V.N.N.P.D.I.C.[am]}|CHEM1{[C([*:1])[*:2]]}$PEPTIDE1,CHEM1,2:R3-1:R1|PEPTIDE1,CHEM1,8:R3-1:R2|PEPTIDE1,PEPTIDE1,3:R3-16:R3$$$V2.0)	Active			
CC.CC[C@H](C)[C@@H]1NC(=O)[C@H](CC(=O)O)NC(=O)[C@@H]2CCCN2C(=O)[C@H](CC(N)=O)NC(=O)[C@H](CC(N)=O)NC(=O)[C@H](C(C)C)NC(=O)[C@H](CO)NC(=O)[C@@H]2CSSC[C@H](NC(=O)CN)C(=O)N[C@@H](CSCSC[C@@H](C(N)=O)NC1=O)C(=O)N[C@@H](CN)C(=O)N[C@@H](Cc1cnc[nH]1)C(=O)N1CCC[C@H]1C(=O)N[C@@H](C)C(=O)N2 (HELM PEPTIDE1{G.C.C.[NC[C@H](N[*:1])C(=O)[*:2]].H.P.A.C.S.V.N.N.P.D.I.C.[am]}|CHEM1{[C([*:1])[*:2]]}$PEPTIDE1,PEPTIDE1,2:R3-8:R3|PEPTIDE1,CHEM1,3:R3-1:R1|PEPTIDE1,CHEM1,16:R3-1:R2$$$V2.0)	Active			
CC[C@H](C)[C@@H]1NC(=O)[C@H](CC(=O)O)NC(=O)[C@@H]2CCCN2C(=O)[C@H](CC(N)=O)NC(=O)[C@H](CC(N)=O)NC(=O)[C@H](C(C)C)NC(=O)[C@H](CO)NC(=O)[C@@H]2CSSC[C@H](NC(=O)CN)C(=O)N[C@@H](CNC(=O)C[C@@H](C(N)=O)NC1=O)C(=O)N[C@@H](CN)C(=O)N[C@@H](Cc1cnc[nH]1)C(=O)N1CCC[C@H]1C(=O)N[C@@H](C)C(=O)N2 (HELM PEPTIDE1{G.C.[O=C([C@H](CN[*:3])N[*:1])[*:2]].[NC[C@H](N[*:1])C(=O)[*:2]].H.P.A.C.S.V.N.N.P.D.I.D.[am]}$PEPTIDE1,PEPTIDE1,2:R3-8:R3|PEPTIDE1,PEPTIDE1,3:R3-16:R3$$$V2.0)		< 5%	57.3%	
CC[C@H](C)[C@@H]1NC(=O)[C@H](CC(=O)O)NC(=O)[C@@H]2CCCN2C(=O)[C@H](CC(N)=O)NC(=O)[C@H](CC(N)=O)NC(=O)[C@H](C(C)C)NC(=O)[C@H](CO)NC(=O)[C@@H]2CSSC[C@H](NC(=O)CN)C(=O)N[C@H](C(=O)N[C@@H](CN)C(=O)N[C@@H](Cc3cnc[nH]3)C(=O)N3CCC[C@H]3C(=O)N[C@@H](C)C(=O)N2)C(C)(C)SSC[C@@H](C(N)=O)NC1=O (HELM PEPTIDE1{G.C.[Pen].[NC[C@H](N[*:1])C(=O)[*:2]].H.P.A.C.S.V.N.N.P.D.I.C.[am]}$PEPTIDE1,PEPTIDE1,2:R3-8:R3|PEPTIDE1,PEPTIDE1,3:R3-16:R3$$$V2.0)			80%	inhibition ([2]; filed as antagonist): 50%; IC50 [4]: 9.9 nM; IC50 [6]: 2.7 nM; remaining at 48 h [7]: 60%
CC[C@H](C)[C@@H]1NC(=O)[C@H](CC(=O)O)NC(=O)[C@@H]2CCCN2C(=O)[C@H](CC(N)=O)NC(=O)[C@H](CC(N)=O)NC(=O)[C@H](C(C)C)NC(=O)[C@H](CO)NC(=O)[C@@H]2CSSC[C@@H]3NC(=O)CNC(=O)[C@@H](N)CCCCNC(=O)CC[C@@H](C(N)=O)NC(=O)[C@H](CSSC[C@H](NC3=O)C(=O)N[C@@H](CN)C(=O)N[C@@H](Cc3cnc[nH]3)C(=O)N3CCC[C@H]3C(=O)N[C@@H](C)C(=O)N2)NC1=O (HELM PEPTIDE1{K.G.C.C.[NC[C@H](N[*:1])C(=O)[*:2]].H.P.A.C.S.V.N.N.P.D.I.C.E.[am]}$PEPTIDE1,PEPTIDE1,1:R3-18:R3|PEPTIDE1,PEPTIDE1,3:R3-9:R3|PEPTIDE1,PEPTIDE1,4:R3-17:R3$$$V2.0)		< 40%	57.3%	
CC[C@H](C)[C@@H]1NC(=O)[C@H](CC(=O)O)NC(=O)[C@@H]2CCCN2C(=O)[C@H](CC(N)=O)NC(=O)[C@H](CC(N)=O)NC(=O)[C@H](C(C)C)NC(=O)[C@H](CO)NC(=O)[C@@H]2CSSC[C@@H]3NC(=O)CNC(=O)[C@@H](N)CNC(=O)C[C@@H](C(N)=O)NC(=O)[C@H](CSSC[C@H](NC3=O)C(=O)N[C@@H](CN)C(=O)N[C@@H](Cc3cnc[nH]3)C(=O)N3CCC[C@H]3C(=O)N[C@@H](C)C(=O)N2)NC1=O (HELM PEPTIDE1{[N[C@@H](CN[*:3])C(=O)[*:2]].G.C.C.[NC[C@H](N[*:1])C(=O)[*:2]].H.P.A.C.S.V.N.N.P.D.I.C.D.[am]}$PEPTIDE1,PEPTIDE1,1:R3-18:R3|PEPTIDE1,PEPTIDE1,3:R3-9:R3|PEPTIDE1,PEPTIDE1,4:R3-17:R3$$$V2.0)		< 5%	57.3%	
CC[C@H](C)[C@@H]1NC(=O)[C@H](CC(=O)O)NC(=O)[C@@H]2CCCN2C(=O)[C@H](CC(N)=O)NC(=O)[C@H](CC(N)=O)NC(=O)[C@H](C(C)C)NC(=O)[C@H](CO)NC(=O)[C@@H]2CSSC[C@@H]3NC(=O)CNC(=O)[C@@H](N)CNC(=O)CC[C@@H](C(N)=O)NC(=O)[C@H](CSSC[C@H](NC3=O)C(=O)N[C@@H](CN)C(=O)N[C@@H](Cc3cnc[nH]3)C(=O)N3CCC[C@H]3C(=O)N[C@@H](C)C(=O)N2)NC1=O (HELM PEPTIDE1{[N[C@@H](CN[*:3])C(=O)[*:2]].G.C.C.[NC[C@H](N[*:1])C(=O)[*:2]].H.P.A.C.S.V.N.N.P.D.I.C.E.[am]}$PEPTIDE1,PEPTIDE1,1:R3-18:R3|PEPTIDE1,PEPTIDE1,3:R3-9:R3|PEPTIDE1,PEPTIDE1,4:R3-17:R3$$$V2.0)		< 5%	57.3%	
CC[C@H](C)[C@@H]1NC(=O)[C@H](CC(=O)O)NC(=O)[C@@H]2CCCN2C(=O)[C@H](CC(N)=O)NC(=O)[C@H](CC(N)=O)NC(=O)[C@H](C(C)C)NC(=O)[C@H](CO)NC(=O)[C@@H]2CSSC[C@@H]3NC(=O)CNC(=O)[C@H](CN)NC(=O)CNC(=O)[C@H](CN)NC(=O)CNC(=O)[C@H](CN)NC(=O)CNC(=O)[C@H](CSSC[C@H](NC3=O)C(=O)N[C@@H](CN)C(=O)N[C@@H](Cc3cnc[nH]3)C(=O)N3CCC[C@H]3C(=O)N[C@@H](C)C(=O)N2)NC1=O (cyclo(ACSVNNPDICG[Dap]G[Dap]G[Dap]GCC[Dap]HP); disulfide 2-18, 10-19)	Active		85.2%	
